Experiments:
[1] = biological target: T1, CCK1 (CCKA) (h) (Homo sapiens, UniProt P32238); assay: CEREP panel; type: binding
T1 construct: CEREP (contract assay)

[2] = biological target: T2, hABHD12 (Homo sapiens, UniProt Q8N2K0); assay: ABHD12 activity; type: biochemical; conditions: read-out: ABHD12 % inhibition
T2 construct: expressed in transfected cells
T2 sequence (Q8N2K0 1-398): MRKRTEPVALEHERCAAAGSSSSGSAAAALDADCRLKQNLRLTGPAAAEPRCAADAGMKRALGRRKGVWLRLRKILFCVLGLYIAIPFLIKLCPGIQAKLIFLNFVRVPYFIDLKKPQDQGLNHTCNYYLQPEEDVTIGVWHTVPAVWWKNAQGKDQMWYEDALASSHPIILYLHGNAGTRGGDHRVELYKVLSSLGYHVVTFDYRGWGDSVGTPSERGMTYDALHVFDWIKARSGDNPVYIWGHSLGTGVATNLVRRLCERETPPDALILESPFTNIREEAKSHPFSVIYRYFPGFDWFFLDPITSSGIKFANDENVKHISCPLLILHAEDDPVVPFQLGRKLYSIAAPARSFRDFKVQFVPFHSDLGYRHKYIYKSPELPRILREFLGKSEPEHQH

[3] = biological target: T3, dopamine transporter (h) (Homo sapiens, UniProt Q01959); assay: CEREP panel; type: binding
T3 construct: CEREP (contract assay)

[4] = biological target: T4, H3 (h) (Homo sapiens, UniProt Q9Y5N1); assay: CEREP panel; type: binding; conditions: 10 µM
T4 construct: CEREP (contract assay)

[5] = biological target: T5, motilin (Homo sapiens, UniProt O43193); assay: CEREP panel; type: binding
T5 construct: CEREP (contract assay)

[6] = biological target: T6, MC5 (Homo sapiens, UniProt P33032); assay: CEREP panel; type: binding
T6 construct: CEREP (contract assay)

[7] = biological target: T7, MCH1 (Homo sapiens, UniProt Q99705); assay: CEREP panel; type: binding
T7 construct: CEREP (contract assay)

[8] = biological target: T8, C5a (Homo sapiens, UniProt P21730); assay: CEREP panel; type: binding
T8 construct: CEREP (contract assay)

[9] = biological target: T9, MC1 (Mus musculus, UniProt Q01727); assay: CEREP panel; type: binding
T9 construct: CEREP (contract assay)

[10] = phosphate buffer pH 6.5, from DMSO stock

T9 sequence (Q01727 whole entry): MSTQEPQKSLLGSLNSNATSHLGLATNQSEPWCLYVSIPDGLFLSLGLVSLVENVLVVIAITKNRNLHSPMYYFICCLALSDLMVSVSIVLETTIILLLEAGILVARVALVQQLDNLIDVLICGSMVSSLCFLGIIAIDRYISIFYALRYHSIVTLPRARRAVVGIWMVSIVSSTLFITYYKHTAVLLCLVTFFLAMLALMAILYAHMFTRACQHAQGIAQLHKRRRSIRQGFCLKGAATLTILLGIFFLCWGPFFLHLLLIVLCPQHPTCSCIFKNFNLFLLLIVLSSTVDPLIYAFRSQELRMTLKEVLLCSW
T1 sequence (P32238 whole entry): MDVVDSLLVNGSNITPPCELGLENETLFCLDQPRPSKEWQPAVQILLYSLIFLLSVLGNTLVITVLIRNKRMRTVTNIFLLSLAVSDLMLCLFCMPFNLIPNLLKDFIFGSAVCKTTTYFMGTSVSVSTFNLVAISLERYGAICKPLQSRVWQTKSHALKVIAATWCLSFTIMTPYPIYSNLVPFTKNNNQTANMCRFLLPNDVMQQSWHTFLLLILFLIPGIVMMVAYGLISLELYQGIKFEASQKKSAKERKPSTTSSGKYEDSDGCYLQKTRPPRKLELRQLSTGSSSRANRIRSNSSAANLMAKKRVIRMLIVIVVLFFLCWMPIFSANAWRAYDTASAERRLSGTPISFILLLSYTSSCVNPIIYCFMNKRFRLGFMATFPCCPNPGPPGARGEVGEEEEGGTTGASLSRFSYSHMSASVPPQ
T6 sequence (P33032 whole entry): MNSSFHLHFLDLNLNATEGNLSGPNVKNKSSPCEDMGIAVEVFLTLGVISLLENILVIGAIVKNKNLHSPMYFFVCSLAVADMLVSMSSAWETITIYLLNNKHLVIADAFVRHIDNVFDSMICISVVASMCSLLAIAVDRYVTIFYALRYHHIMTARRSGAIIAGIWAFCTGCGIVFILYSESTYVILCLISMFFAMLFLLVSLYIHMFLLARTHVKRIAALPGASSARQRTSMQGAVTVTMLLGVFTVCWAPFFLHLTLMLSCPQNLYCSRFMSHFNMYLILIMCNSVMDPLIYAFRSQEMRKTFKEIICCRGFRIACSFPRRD
T3 sequence (Q01959 whole entry): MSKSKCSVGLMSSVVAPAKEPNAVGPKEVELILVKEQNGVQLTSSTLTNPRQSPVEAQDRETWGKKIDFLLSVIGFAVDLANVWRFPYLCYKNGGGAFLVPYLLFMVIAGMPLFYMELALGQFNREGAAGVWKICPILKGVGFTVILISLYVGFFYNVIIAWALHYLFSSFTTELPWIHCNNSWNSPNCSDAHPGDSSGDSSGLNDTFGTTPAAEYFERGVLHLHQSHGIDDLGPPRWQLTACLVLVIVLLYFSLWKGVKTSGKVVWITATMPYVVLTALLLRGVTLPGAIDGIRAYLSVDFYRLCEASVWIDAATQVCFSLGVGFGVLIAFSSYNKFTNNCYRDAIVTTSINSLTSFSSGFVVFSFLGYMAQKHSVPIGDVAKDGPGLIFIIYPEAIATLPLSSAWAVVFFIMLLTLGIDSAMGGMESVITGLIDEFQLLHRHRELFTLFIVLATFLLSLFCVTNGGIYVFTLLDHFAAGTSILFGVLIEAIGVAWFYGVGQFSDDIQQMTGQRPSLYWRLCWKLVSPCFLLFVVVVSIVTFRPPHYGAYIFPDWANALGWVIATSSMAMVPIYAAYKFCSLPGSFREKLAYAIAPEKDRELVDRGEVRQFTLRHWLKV
T4 sequence (Q9Y5N1 whole entry): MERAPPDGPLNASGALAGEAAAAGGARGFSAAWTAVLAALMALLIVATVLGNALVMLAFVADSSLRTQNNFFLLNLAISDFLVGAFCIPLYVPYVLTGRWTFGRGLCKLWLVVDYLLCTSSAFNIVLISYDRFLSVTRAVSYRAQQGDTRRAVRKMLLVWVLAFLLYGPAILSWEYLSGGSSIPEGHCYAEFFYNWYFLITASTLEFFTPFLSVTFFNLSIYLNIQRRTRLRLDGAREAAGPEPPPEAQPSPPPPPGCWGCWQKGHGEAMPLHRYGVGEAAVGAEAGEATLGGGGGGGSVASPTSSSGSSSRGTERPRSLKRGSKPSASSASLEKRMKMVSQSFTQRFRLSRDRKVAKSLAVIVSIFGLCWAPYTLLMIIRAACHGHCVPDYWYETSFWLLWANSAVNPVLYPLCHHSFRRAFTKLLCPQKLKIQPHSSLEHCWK
T8 sequence (P21730 whole entry): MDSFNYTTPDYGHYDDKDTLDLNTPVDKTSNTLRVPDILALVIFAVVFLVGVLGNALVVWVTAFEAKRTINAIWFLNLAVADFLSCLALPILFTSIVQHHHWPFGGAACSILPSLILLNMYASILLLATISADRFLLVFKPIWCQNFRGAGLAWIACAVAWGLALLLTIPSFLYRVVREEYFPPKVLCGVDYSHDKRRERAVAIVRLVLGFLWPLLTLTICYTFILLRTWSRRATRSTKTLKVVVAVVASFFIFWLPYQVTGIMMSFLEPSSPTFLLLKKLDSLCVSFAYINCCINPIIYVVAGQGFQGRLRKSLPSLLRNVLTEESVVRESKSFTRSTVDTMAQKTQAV
T5 sequence (O43193 whole entry): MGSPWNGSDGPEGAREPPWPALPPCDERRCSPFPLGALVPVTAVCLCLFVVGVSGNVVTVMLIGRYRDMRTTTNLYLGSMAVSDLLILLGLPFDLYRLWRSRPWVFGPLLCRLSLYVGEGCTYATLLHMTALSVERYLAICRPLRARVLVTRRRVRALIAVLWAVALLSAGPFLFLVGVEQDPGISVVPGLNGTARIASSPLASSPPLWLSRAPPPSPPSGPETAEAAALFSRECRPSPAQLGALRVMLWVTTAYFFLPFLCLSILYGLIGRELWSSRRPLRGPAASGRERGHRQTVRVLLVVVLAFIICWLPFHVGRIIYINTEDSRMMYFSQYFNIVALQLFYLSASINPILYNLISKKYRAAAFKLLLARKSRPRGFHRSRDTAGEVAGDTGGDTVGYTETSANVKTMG
T7 sequence (Q99705 whole entry): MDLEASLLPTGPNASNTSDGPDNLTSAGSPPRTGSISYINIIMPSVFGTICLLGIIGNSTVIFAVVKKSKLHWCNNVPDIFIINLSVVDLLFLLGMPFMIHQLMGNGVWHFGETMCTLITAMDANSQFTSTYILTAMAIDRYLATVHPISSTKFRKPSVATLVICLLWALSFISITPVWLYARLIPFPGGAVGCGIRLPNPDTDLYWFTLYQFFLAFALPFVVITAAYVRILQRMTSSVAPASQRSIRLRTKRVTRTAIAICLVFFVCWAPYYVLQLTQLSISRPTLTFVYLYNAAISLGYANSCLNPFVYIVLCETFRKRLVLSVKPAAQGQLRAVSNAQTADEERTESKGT

Compound: CCCCCCC(C)(C)c1cc(OC)c([C@@H]2C=C(CO)[C@@H]3C[C@H]2C3(C)C)c(OC)c1 [HU308]
- inhibition at 10 µM [1]: 75%
- inhibition at 5 µM [2]: < 25%
- inhibition at 10 µM [3]: 71%

Compound: CN1CCCC[C@H]1Cn1cc(C(=O)c2cc([N+](=O)[O-])ccc2I)c2ccccc21 [(S)-AM1241]
- % inhibition H3 (h) [4]: 87%

Compound: Cc1c(C(=O)NN2CCCCC2)nn(-c2ccc(Cl)cc2Cl)c1-c1ccc(Cl)cc1 [SR141716A]
- inhibition at 10 µM [5]: 25%
- inhibition at 10 µM [6]: 39%
- inhibition at 10 µM [7]: -12%
- inhibition at 10 µM [8]: 2%
- inhibition at 10 µM [9]: 10%

Compound: CCCCCCC(C)(C)c1ccc([C@@H]2C[C@H](O)CC[C@H]2CCCO)c(O)c1 [CP55940]
- Kinetic solubility [10]: soluble

Reference: publication PMC5216056 (Nature Communications, 2017)
